From ChEMBL document CHEMBL1201862, “PubChem BioAssay data set” (2004)
Activity calls are given as the source filed them.

How the values were obtained:
[1] = Luminescence Cell-Based Dose Confirmation HTS to Identify Inhibitors of Polyadenylation.; assay type: functional
[2] = molecular target: T1, Protein RecA (Mycobacterium tuberculosis, UniProt P9WHJ3); test: Fluorescence Cell-Free Homogeneous Dose Retest to Identify Inhibitors of RecA-Intein Splicing Activity. [Related pubchem assays (depositor defined):AID2097, AID2223, AID489010, AID492950]; assay type: functional
T1 sequence (P9WHJ3 whole entry): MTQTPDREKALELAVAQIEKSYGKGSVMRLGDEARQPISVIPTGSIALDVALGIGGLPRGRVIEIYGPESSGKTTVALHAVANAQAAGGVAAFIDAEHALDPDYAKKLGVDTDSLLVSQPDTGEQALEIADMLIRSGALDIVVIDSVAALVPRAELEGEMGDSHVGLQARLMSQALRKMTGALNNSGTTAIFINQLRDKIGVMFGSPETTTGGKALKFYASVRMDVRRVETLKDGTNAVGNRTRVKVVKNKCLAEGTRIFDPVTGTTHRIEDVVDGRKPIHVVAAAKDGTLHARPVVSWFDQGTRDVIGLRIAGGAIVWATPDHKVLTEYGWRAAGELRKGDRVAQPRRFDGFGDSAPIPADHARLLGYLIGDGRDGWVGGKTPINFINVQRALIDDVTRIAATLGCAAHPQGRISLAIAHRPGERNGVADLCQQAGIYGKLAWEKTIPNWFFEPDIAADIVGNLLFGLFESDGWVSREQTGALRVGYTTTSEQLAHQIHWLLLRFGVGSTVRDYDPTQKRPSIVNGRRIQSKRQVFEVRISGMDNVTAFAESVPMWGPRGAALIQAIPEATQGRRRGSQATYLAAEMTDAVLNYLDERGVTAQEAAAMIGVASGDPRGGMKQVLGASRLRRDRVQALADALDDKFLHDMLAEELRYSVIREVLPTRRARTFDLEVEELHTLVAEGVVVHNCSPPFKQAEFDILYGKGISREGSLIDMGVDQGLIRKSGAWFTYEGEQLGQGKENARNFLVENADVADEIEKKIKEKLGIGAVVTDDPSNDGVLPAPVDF

[3] = molecular target: T2, Alkaline phosphatase, tissue-nonspecific isozyme (Homo sapiens, UniProt P05186)
T2 sequence (P05186 whole entry): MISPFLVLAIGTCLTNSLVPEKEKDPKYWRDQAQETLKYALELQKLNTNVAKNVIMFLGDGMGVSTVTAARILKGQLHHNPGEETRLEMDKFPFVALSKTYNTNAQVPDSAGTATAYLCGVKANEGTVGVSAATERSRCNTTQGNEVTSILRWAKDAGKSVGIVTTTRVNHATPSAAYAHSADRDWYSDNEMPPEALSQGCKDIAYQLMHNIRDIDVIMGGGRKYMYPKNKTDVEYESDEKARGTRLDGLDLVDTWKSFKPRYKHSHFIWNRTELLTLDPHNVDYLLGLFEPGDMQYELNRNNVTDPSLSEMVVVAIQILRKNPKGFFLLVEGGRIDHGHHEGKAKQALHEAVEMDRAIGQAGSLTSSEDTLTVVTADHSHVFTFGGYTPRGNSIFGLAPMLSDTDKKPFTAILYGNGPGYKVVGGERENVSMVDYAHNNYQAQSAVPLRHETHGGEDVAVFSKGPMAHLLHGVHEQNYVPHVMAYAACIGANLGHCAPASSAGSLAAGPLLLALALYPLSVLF

[4] = molecular target: T3, Replicative DNA helicase DnaB (Mycobacterium tuberculosis, UniProt P9WMR3); test: DnaB intein splicing inhibitors, dose response, biochemical, cell-free fluorescence (AID 449749); assay type: functional
T3 sequence (P9WMR3 whole entry): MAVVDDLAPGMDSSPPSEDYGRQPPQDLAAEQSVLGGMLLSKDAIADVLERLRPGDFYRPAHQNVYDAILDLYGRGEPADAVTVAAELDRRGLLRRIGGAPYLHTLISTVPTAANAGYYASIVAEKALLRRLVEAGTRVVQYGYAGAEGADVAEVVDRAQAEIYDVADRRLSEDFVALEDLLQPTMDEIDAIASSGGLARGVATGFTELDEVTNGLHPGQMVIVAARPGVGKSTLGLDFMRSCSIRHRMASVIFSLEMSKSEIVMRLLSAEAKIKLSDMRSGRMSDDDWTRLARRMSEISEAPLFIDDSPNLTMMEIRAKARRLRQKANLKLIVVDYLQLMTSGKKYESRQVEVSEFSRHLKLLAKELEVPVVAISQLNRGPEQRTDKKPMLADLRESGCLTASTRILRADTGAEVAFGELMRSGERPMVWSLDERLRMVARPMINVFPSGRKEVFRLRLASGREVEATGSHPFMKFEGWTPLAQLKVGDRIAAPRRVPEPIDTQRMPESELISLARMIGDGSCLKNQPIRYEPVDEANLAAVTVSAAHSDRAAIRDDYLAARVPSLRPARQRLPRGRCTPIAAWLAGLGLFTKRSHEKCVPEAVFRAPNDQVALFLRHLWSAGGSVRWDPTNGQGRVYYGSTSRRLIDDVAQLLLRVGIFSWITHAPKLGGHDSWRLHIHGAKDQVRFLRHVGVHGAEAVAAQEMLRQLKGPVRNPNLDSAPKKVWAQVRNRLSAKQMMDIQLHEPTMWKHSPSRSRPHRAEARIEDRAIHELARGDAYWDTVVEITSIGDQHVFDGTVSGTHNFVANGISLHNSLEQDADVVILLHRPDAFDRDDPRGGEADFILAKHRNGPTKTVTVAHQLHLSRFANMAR

[5] = M. tuberculosis H37Rv growth inhibitors, H37Rv strain (AID 1626); assay type: functional
[6] = molecular target: Paired box protein Pax-8 (Homo sapiens, UniProt Q06710); test: PAX8 transcriptional activity inhibition in RMG-I – RMG-I cells, luciferase, cherry-pick, dose response (AID 687027); assay type: functional, cell-based;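 also: luciferase reporter driven by Pax8 target thyroperoxidase promoter measured by SteadyGlo luminescence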
[7] = alpha-synuclein stem-loop luciferase translation blockers – H4 neuroglioma cells, luminescence, confirmation (AID 1988); assay type: functional, cell-based
[8] = system: BJ; test: BJ-TERT fibroblast viability loss – cell-based, RAS-independent, luminescence, dose response (AID 1933); assay type: functional; settings: Homo sapiens
[9] = DRD fibroblast viability loss – cell-based, non-viral oncogenic, luminescence, dose response (AID 1934); assay type: functional; settings: Homo sapiens
[10] = Luminescence Cell-Based Dose Response HTS to Identify Inhibitors of 5'UTR Stem-Loop Driven Prion Protein mRNA Translation in H4 Neuroglioblastoma Cells. [Related pubchem assays: 1827 (Project Summary), 1813 (Primary HTS)]; assay type: functional
[11] = luciferase reporter signal suppression in cells – H4 neuroglioma cells, luminescence, dose response (AID 1990); assay type: functional, cell-based
[12] = system: BJ; test: growth inhibition of engineered Ras-driven BJ cells – cell-based, alamar blue fluorescence, cherrypicked samples, dose response (AID 2631); assay type: functional; settings: Homo sapiens;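 also: confirmatory dose-response assay in RAS-dependent BJ fibroblasts engineered with TERT, LT and ST, with cytotoxicity read by fluorescence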
[13] = HEK-293T viability loss after treatment – luminescence, T-cell screen hits, cytotoxicity control for TCR NF-kB inhibitor project, dose response (AID 489026); assay type: functional, cell-based;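 also: cells exposed to compound about 14 hours before the viability readout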
[14] = system: BJ; test: cells; assay type: functional, cell-based; settings: Homo sapiens
[15] = Luminescence-based dose response cell-based high throughput screening assay for cytotoxic compounds using the IEC-6 intestinal epithelial cell line. [Related pubchem assays: 1858 (Summary AID.), 1825 (Counterscreen.), 1907 (Confirmation screen.)]; assay type: functional
[16] = system: BJ; test: BJ-TERT-LT-ST fibroblast viability loss – cell-based, RAS-independent, luminescence, dose response (AID 1935); assay type: functional; settings: Homo sapiens;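 also: BJ fibroblasts immortalized with TERT plus LT and ST oncogenes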
[17] = molecular target: Peroxisome proliferator-activated receptor gamma/Nuclear receptor coactivator 1 (Homo sapiens, UniProt P37231); assay type: functional;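 also: agonist potency as compounds enhance coactivator SRC-1 recruitment to PPARgamma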
Chain of Peroxisome proliferator-activated receptor gamma/Nuclear receptor coactivator 1 (P37231 whole entry): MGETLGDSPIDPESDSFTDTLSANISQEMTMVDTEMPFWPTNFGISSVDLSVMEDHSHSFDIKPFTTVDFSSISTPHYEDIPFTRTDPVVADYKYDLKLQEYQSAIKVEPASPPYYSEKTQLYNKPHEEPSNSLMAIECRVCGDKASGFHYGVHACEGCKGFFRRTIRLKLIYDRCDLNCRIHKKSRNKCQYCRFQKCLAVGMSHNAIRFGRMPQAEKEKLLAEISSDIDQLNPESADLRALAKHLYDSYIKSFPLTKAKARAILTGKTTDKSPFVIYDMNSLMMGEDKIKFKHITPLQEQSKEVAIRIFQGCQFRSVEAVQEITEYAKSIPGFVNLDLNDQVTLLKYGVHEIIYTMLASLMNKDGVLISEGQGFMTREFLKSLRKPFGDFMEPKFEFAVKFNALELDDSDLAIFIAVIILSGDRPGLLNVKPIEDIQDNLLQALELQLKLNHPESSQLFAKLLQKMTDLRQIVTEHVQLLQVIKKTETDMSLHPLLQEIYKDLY
Chain of Peroxisome proliferator-activated receptor gamma/Nuclear receptor coactivator 1 (Q15788 whole entry, further chain): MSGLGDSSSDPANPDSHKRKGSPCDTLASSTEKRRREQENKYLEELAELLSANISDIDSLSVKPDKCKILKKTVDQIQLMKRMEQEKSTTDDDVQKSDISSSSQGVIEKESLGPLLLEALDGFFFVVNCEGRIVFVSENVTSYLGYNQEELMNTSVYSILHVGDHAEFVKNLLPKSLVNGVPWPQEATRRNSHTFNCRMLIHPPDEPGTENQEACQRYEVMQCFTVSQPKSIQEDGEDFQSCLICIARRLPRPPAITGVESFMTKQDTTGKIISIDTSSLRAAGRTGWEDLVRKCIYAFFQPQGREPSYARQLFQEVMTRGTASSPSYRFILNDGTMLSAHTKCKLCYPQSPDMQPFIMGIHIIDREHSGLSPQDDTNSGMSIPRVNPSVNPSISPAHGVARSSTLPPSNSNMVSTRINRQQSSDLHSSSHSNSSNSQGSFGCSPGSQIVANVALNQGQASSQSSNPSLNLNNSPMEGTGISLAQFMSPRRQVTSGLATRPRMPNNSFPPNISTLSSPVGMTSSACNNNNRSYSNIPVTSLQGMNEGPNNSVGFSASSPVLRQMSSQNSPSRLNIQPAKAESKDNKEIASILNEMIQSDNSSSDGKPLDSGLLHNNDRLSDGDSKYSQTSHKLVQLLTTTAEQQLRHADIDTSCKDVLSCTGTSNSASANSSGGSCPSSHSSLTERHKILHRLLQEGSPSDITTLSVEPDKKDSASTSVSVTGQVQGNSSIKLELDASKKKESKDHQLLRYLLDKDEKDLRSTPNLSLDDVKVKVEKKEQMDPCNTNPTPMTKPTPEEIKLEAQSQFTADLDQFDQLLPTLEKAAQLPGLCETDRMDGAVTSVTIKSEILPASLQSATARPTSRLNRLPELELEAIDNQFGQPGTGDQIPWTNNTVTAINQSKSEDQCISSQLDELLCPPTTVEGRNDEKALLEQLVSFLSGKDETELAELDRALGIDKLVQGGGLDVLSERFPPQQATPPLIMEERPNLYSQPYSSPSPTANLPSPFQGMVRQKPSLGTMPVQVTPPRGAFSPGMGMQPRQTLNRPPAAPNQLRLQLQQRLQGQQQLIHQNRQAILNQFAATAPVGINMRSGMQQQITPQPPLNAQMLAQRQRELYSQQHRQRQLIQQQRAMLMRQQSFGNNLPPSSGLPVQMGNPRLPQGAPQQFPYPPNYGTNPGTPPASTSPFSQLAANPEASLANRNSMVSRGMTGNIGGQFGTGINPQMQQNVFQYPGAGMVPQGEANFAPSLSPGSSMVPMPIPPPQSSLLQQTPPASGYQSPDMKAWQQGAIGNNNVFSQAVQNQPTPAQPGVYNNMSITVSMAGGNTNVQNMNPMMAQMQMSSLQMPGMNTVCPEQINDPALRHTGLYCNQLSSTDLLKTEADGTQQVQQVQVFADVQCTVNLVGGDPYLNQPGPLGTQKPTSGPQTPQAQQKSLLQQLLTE

[18] = molecular target: Peroxisome proliferator-activated receptor gamma/Nuclear receptor coactivator 2 (Homo sapiens, UniProt P37231); assay type: functional;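 also: agonist potency for raising coactivator recruitment to the receptor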
Chain of Peroxisome proliferator-activated receptor gamma/Nuclear receptor coactivator 2 (P37231 whole entry): as the sequence (P37231 whole entry) above
Chain of Peroxisome proliferator-activated receptor gamma/Nuclear receptor coactivator 2 (Q15596 whole entry, further chain): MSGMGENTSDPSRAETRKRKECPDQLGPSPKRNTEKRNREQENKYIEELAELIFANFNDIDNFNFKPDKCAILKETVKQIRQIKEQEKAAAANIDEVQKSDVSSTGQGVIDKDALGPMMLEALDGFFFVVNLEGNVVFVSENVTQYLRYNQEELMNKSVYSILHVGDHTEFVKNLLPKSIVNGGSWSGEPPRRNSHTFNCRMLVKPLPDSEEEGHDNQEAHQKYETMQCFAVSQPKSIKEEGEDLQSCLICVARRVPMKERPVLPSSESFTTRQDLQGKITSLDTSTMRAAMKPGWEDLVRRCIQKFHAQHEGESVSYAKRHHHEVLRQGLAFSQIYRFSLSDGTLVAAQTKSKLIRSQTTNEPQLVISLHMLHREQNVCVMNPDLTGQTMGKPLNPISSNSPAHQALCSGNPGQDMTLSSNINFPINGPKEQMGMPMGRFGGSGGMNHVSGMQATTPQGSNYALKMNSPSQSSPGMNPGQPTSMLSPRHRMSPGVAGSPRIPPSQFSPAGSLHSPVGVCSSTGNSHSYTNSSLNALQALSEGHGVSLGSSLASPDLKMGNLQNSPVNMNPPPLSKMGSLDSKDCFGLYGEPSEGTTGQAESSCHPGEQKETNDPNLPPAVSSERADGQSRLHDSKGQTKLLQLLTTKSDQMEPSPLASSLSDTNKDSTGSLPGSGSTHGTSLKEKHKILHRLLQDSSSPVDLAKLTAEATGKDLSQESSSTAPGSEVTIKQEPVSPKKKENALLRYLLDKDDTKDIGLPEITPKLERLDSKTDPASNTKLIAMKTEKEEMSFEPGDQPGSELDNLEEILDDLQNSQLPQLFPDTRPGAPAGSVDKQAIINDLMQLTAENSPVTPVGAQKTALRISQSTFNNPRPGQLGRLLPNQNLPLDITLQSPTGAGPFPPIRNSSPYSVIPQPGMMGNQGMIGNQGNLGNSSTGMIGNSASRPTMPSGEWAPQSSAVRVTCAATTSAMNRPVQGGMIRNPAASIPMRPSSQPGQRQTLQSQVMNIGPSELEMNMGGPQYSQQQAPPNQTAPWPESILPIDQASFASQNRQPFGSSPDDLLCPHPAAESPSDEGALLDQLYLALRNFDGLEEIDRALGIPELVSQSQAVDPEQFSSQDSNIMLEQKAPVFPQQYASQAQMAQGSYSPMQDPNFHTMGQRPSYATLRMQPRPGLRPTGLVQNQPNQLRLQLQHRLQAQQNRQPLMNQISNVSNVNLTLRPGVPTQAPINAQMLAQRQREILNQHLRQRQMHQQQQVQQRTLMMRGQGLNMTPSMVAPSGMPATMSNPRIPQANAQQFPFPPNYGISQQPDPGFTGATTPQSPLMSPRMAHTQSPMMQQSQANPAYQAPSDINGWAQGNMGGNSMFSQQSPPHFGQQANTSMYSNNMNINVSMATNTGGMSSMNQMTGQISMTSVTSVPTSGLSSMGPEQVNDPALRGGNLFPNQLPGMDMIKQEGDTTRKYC

[19] = molecular target: Peroxisome proliferator-activated receptor gamma/Nuclear receptor coactivator 3 (Homo sapiens, UniProt P37231); assay type: functional;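 also: agonist potency for raising coactivator recruitment to the receptor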
[20] = system: HEK293; test: cells; assay type: functional, cell-based; settings: Homo sapiens
[21] = system: INS1; test: INS-1E survival protection against cytokine death – cell-based, luminescence, retest, dose response (AID 449756); assay type: functional; settings: Rattus norvegicus;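 also: cell death triggered by IL-1 beta plus TNF-alpha plus IFN-gamma mixture; protective hits raise ATP signal compared with cytokine alone wells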
[22] = system: HEK293; test: cells; assay type: functional, cell-based; settings: Homo sapiens; remark: listed apart in the source
[23] = system: HEK293; test: cells; assay type: functional, cell-based; settings: Homo sapiens; remark: listed apart in the source
[24] = system: HEK293; test: NOD2 signaling inhibitors in MDP-stimulated cells, cell-based, uHTS, luminescence (AID 2001); assay type: functional; settings: Homo sapiens
[25] = HIV-1 AD8 envelope cell-cell fusion blockers – cherry-pick, dose response (AID 652062); assay type: functional, cell-based;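 also: luciferase signal from cell-cell fusion driven by HIV-1 clade B AD8 Env; potency is for inhibitors of fusion seen as a drop in luminescence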
[26] = molecular target: Nucleotide-binding oligomerization domain-containing protein 2 (Homo sapiens, UniProt Q9HC29); test: inhibition of NOD2-driven NF-kB reporter – cell-based, luminescence, uHTS, HEK293 (AID 1566); assay type: functional
Chain of Nucleotide-binding oligomerization domain-containing protein 2 (Q9HC29 whole entry, the tested form may be a part): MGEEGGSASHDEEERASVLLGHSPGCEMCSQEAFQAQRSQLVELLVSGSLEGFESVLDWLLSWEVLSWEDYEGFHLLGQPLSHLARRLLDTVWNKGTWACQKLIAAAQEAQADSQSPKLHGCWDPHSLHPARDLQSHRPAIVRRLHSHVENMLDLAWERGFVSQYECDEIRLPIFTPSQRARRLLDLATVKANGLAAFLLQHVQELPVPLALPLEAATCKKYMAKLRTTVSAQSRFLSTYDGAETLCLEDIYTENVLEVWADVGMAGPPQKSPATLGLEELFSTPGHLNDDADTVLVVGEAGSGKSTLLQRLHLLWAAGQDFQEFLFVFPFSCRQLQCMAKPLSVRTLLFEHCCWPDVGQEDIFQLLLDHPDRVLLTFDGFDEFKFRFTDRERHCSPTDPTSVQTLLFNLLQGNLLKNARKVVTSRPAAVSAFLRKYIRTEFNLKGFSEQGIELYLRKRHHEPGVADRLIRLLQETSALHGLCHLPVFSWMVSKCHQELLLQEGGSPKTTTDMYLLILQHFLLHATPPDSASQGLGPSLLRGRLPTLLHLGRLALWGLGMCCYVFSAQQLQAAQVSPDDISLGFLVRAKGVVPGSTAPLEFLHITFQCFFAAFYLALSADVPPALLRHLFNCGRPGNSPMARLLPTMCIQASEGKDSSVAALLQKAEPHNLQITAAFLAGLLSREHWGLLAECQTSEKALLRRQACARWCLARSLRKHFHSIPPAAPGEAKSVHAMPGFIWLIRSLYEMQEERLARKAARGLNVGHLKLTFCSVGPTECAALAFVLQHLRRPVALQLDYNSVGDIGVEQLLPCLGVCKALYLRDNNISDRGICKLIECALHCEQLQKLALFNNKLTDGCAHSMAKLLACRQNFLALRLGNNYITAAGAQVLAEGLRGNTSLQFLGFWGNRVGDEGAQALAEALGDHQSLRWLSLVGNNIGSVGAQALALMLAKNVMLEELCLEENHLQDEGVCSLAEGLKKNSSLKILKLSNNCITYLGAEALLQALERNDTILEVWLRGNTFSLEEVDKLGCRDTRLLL

[27] = molecular target: T4, Galanin receptor type 2 (Homo sapiens, UniProt O43603); test: Dose Response cell-based high-throughput screening assay to identify antagonists of galanin receptor 2 (GALR2). [Related pubchem assays: 828, 866 ]; assay type: functional
T4 sequence (O43603 whole entry): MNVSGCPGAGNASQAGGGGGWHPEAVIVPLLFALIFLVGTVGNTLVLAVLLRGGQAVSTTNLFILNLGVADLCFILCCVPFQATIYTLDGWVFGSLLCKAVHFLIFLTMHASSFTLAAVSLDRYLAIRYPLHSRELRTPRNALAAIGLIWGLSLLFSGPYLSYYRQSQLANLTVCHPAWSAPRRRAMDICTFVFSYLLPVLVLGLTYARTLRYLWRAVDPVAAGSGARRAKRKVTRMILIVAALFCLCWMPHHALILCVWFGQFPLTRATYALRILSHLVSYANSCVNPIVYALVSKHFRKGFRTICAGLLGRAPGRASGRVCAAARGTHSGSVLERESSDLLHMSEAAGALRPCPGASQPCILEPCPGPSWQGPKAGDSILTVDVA

[28] = system: HEK293; test: inhibition of NOD1-driven NF-kB reporter – cell-based, luminescence, uHTS, primary screen (AID 1578); assay type: functional; settings: Homo sapiens
[29] = Trypanosoma cruzi growth suppression in host cells – NIH3T3 host cells, beta-gal luminescence, confirmation (AID 2044); assay type: functional, cell-based;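 also: intracellular parasites grown in NIH/3T3 mouse fibroblasts as host cells; luminescent beta-galactosidase reporter signal from transgenic T. cruzi replicating inside host cells; inhibitors lower the luminescence signal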
[30] = alpha-synuclein stem-loop translation blockers – luminescence, H4 neuroglioblastoma cells, dose confirmation, confirmation (AID 2454); assay type: functional, cell-based;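 also: H4 neuroglioblastoma cells carrying an alpha-synuclein 5'UTR luciferase reporter; potency for inhibition of the luciferase signal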
[31] = cells; assay type: functional, cell-based
[32] = cells
[33] = luciferase reporter signal reduction – luminescence, H4-C neuroglioblastoma cells, dose response (AID 2458); assay type: functional, cell-based;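 also: H4 neuroglioblastoma cells stably carrying a luciferase reporter gene fusion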
[34] = loss of viability in HepG2 cells – cell-based, CellTiter-Glo, cherry-picked, cytotoxicity control for Shn3 inhibitor project, dose response (AID 624134); assay type: functional
[35] = non-specific 3'UTR reporter inhibition in Clone20-Shn3RL – cell-based, Renilla luciferase, cherry-picked, counter-screen for Shn3 inhibitor project, dose response (AID 624133); assay type: functional
[36] = Luminescence Cell-Based Dose Retest to Confirm Inhibitors of Cancer Stem Cells. [Related pubchem assays (depositor defined):AID2717, AID2721]; assay type: functional, Homo sapiens; settings: Homo sapiens
[37] = NIH3T3 cell viability loss – ATP luminescence, mouse fibroblasts, counter-screen, dose response (AID 2010); assay type: functional, cell-based;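 also: cells exposed to compound for about 90 hours before reading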
[38] = reduction of Shn3 3'UTR-driven luciferase in osteoblasts – cell-based, Clone20 osteoblasts, firefly luciferase, cherry-picked, dose response (AID 624132); assay type: functional;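 also: firefly luciferase luminescence from reporter carrying the Shn3 3'UTR in osteoblasts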

Compound: Cn1cccc1Cc1nnc(SCC(=O)NCc2ccccc2Cl)n1-c1ccc(F)cc1
- EC50 [1]: > 120 µM (not active)

Compound: CC/C(=C/c1sc2ccc(C)cc2[n+]1CCO)SC
- EC50 [2]: 14.2 µM (active)
- EC50 [3]: > 100 µM (not active)
- AC50 [4]: > 380 µM (inactive)

Compound: Cc1ccc2[nH]c(SCC(=O)Nc3ccc4c(c3)CCC4)nc2c1
- IC50 [5]: > 100 µM (active)

Compound: COc1ccc(CCNc2nnc(Sc3nnnn3-c3ccccc3)s2)cc1OC
- AC50 [6]: 4.21 µM (active)
- EC50 [7]: 5.09 µM (active)
- EC50 [8]: 2.95 µM (active)
- EC50 [9]: 2.38 µM (active)
- EC50 [10]: 10.8 µM (active)
- EC50 [11]: 5.51 µM (active)
- EC50 [12]: 0.616 µM (active)
- IC50 [13]: > 80 µM (inactive)
- EC50 [14]: 3.24 µM (active)
- IC50 [15]: 2.49 µM (active)
- EC50 [16]: 2.35 µM (inconclusive)

Compound: COc1ccc2nc(C)cc(SCC(=O)Nc3c(C)cc(C)cc3C)c2c1
- EC50 [17]: 55.2 µM (not active)
- EC50 [18]: 27.8 µM (not active)
- EC50 [3]: > 100 µM (not active)
- EC50 [19]: > 79.4 µM (not active)

Compound: O=C(NC(=S)Nc1ccc(NC(=O)c2ccco2)cc1)c1ccccc1
- EC50 [1]: > 120 µM (not active)

Compound: Cc1nc2ccc(NC(=O)c3cc(S(=O)(=O)N(C)c4ccccc4)ccc3Cl)cc2s1
- IC50 [20]: > 20 µM (inactive)
- AC50 [21]: 1.72 µM (active)
- IC50 [22]: > 20 µM (inactive)
- IC50 [23]: 5.43 µM (active)
- IC50 [24]: 3.91 µM (inactive)
- AC50 [25]: 2.17 µM (active)
- EC50 [26]: > 20 µM (inactive)
- IC50 [27]: > 42 µM (not active)
- EC50 [28]: 2.55 µM (active)

Compound: O=C(O)C1CCCCC1C(=O)Nc1ccccc1Nc1ccccc1 (stereo not drawn)
- IC50 [5]: > 100 µM (active)

Compound: CC(=O)O[C@H]1C(=O)[C@@]2(C)C([C@H](OC(=O)c3ccccc3)[C@]3(O)C[C@H](OC(=O)[C@H](O)[C@@H](NC(=O)c4ccccc4)c4ccccc4)C(C)=C1C3(C)C)[C@]1(OC(C)=O)CO[C@@H]1C[C@H]2O (stereo partly drawn)
- EC50 [7]: < 0.1 µM (active)
- EC50 [29]: < 0.1 µM (active)
- EC50 [30]: 0.279 µM (active)
- EC50 [11]: < 0.1 µM (active)
- IC50 [13]: > 80 µM (inactive)
- EC50 [31]: 0.222 µM (active)
- EC50 [32]: < 0.004 µM (active)
- IC50 [15]: 0.0719 µM (active)
- EC50 [33]: 0.268 µM (active)

Compound: Cc1cc(Nc2cccc(Cl)c2)nc(NCc2ccccc2)n1
- EC50 [29]: 0.177 µM (active)
- AC50 [34]: 53 µM (active)
- AC50 [21]: 3.21 µM (active)
- AC50 [35]: 6.41 µM (active)
- AC50 [36]: 5.51 µM (active)
- IC50 [27]: > 42 µM (not active)
- EC50 [37]: > 60 µM (inconclusive)
- AC50 [38]: 1.64 µM (active)
